Consider two compounds from patent US20080187911A1, “Methods and compositions for analysis of mitochondrial-related gene expression” (priority 2003, published 2008).

The test system of experiment [1] is mitochondrial DNA encoded gene expression. The experiment in a line: Microarray analysis of mitochondrial DNA encoded gene expression in response to 3-nitropropionic acid. The format is cell-based. Particulars: 3 NPA treatments at 6, 12 and 26 hours; inhibition of Complex II (succinic dehydrogenase). The method, then:
FIGS. 5A-5B. Analysis of mitochondrial DNA encoded gene expression. FIG. 5A—response to 3-nitropropionic acid, an inhibitor of Complex II—succinic dehydrogenase. […] FIG. 5B-analysis of mitochondrial DNA encoded gene expression in trypanosome infected heart tissue.
Analysis of mitochondrial DNA encoded gene expression in response to 3-nitropropionic acid (3NPA), an inhibitor of Complex II—succinic dehydrogenase was performed (FIG. 5A, Table 5). The 3 NPA treatments were at 6, 12 and 26 hours.

Experiment [2] concerns mouse mitochondrial genes in AML-12 mouse liver cells. The experiment in a line: Microarray analysis of the effects of rotenone on expression of mouse mitochondrial genes. The format is cell-based. Particulars: AML-12 mouse liver cells in culture. The text has this:
FIG. 4. The effects of rotenone, an inhibitor of mitochondrial Complex I, on the expression of mouse mitochondrial genes in AML-12 mouse liver cells in culture.
The effects of rotenone, an inhibitor of mitochondrial Complex I, on the expression of mouse mitochondrial genes in AML-12 mouse liver cells in culture were examined (FIG. 4; Table 4). […] Spots A1-G11 represent mitochondrial related nuclear encoded genes; spots G12-H12 represent the 13 genes encoded by mitochondrial DNA. It should be noted that in subsequent microarray designs (constructions) the mitochondrial DNA encoded genes G12-H12 were removed from the filters and arrayed separately. Thus, the G12-H12 spots were replaced with nuclear encoded genes. […] E4 and E5 represent the […] and 16S mitochondrial ribosomal RNAs.

SMILES strings stand for the structures.

As to `O=C(O)CC[N+](=O)[O-]` [3-nitropropionic acid], in experiment [1], the “synthesis of mitochondrial encoded mRNAs and ribosomal RNAs” value is “stimulates the synthesis of mitochondrial encoded mRNAs and the 23S and 16S ribosomal RNAs”.
With `C=C(C)[C@H]1Cc2c(ccc3c2O[C@@H]2COc4cc(OC)c(OC)cc4[C@@H]2C3=O)O1` [rotenone], the “mRNA pool levels of mitochondrial-related genes on the microarray” value in experiment [2] (genes named: A11 ATP synthase lipid binding proteins, B8 ADP, ATP carrier protein, B9 cytochrome C oxidase chain VIIa, D12 chaperonin 10, E12 pyruvate carboxylase, H7 Complex I: Protein Dehydrogenase chain 3) is recorded as “up-regulated”. Moreover, the “production of mRNAs of Complex I proteins (H7, H10)” value in experiment [2] (inhibition of Complex I, suggested compensatory response) is “may stimulate the production of mRNAs of Complex I proteins (H7, H10)”.
